Measured values: patent US20220332700A1, “NOVEL APOPTOSIS SIGNAL-REGULATING KINASE 1 INHIBITORS” (MANKIND PHARMA LTD, priority 2019, published 2022)

Molecular target: T1, recombinant ASK1 (Homo sapiens, UniProt Q99683)
T1 construct: purchased Carna Biosciences
Assay: ASK1 Biochemical Assay (HTRF KinEASE-STK S3)
Conditions: ATP 100 μM; read-out: Biochemical Assay IC50
Protocol: ASK1 biochemical assay was standardized using recombinant ASK1 (Carna Biosciences), substrate and detection reagents from Cisbio HRTF KinEASE-STK S3 kit. Enzyme concentration, ATP, biotinylated STK substrate and STK antibodies were titrated for enzyme assay. Assay was carried out in ASK1 kinase buffer, 10 mM MOPS pH-7, 10 mM Mg-acetate, 1 mM DTT, 0.025% NP40, 1.5% glycerol and 0.05% BSA. DMSO was used as vehicle control with a final concentration of 1%. A 5 ng of ASK1 enzyme was incubated with compound for 1 hour at 23° C. on a shaker at 100rpm. ATP and biotin substrate was added at a final concentration of 100 μM and 1 μM and incubated for 3 hours at 23° C. on a shaker at 100rpm. […] Delta F ratios were calculated from data obtained at excitation (337 nm) and emission wavelengths (665 nm and 620-10 nm). Substrate blank values was considered as negative control. Values from negative control was substrated from vehicle control and compound treated wells. Enzyme inhibition by compounds were calculated from vehicle controls, which represent uninterrupted enzyme's activity.

T1 sequence (Q99683 654-971 limits assumed): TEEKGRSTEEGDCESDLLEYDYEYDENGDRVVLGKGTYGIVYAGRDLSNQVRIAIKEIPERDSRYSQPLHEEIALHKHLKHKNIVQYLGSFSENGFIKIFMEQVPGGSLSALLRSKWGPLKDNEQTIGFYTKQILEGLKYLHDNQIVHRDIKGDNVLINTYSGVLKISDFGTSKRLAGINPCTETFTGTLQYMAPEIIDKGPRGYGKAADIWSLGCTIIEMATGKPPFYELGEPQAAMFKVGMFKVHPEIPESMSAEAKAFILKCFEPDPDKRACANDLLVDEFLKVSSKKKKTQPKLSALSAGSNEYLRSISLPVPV

Structure (SMILES) | IC50
COCCCNC(=O)c1ccc(N2CCN(c3cccc(-c4nncn4C(C)C)n3)C2=O)cn1 [Example 1117, 5-(3-(6-(4-isopropyl-4H-1,2,4-triazol-3-yl)pyridin-2-yl)-2-oxoimidazolidin-1-yl)-N-(3-methoxypropyl)pyridine-2-carboxamide] | < 100 nM
CNC(=O)C1CCN(c2ccc(N3CCN(c4cccc(-c5nncn5C(C)C)n4)C3=O)cn2)C1 (stereo not shown) [Example 1119, 1-(5-(3-(6-(4-isopropyl-4H-1,2,4-triazol-3-yl)pyridin-2-yl)-2-oxoimidazolidin-1-yl)pyridin-2-yl)-N-methylpyrrolidine-3-carboxamide] | < 50 nM
CC(C)n1cnnc1-c1cccc(N2CCN(c3ccc(N4CCC(S(C)(=O)=O)CC4)nc3)C2=O)n1 [Example 1120, 1-(6-(4-isopropyl-4H-1,2,4-triazol-3-yl)pyridin-2-yl)-3-(6-(4-(methylsulfonyl)piperidin-1-yl)pyridin-3-yl)imidazolidin-2-one] | < 100 nM
CC(C)n1cnnc1-c1cccc(N2CCN(c3ccc(N4CCC(N(C)C)CC4)nc3)C2=O)n1 [Example 1121, 1-(6-(4-(dimethylamino)piperidin-1-yl)pyridin-3-yl)-3-(6-(4-isopropyl-4H-1,2,4-triazol-3-yl)pyridin-2-yl)imidazolidin-2-one] | < 100 nM
CNC(=O)C1CN(c2ccc(N3CCN(c4cccc(-c5nncn5C(C)C)n4)C3=O)cn2)C1 [Example 1122, 1-(5-(3-(6-(4-isopropyl-4H-1,2,4-triazol-3-yl)pyridin-2-yl)-2-oxoimidazolidin-1-yl)pyridin-2-yl)-N-methylazetidine-3-carboxamide] | < 100 nM
CNC(=O)C1CCN(C(C)c2ccc(N3CCN(c4cccc(-c5nncn5C(C)C)n4)C3=O)cc2)CC1 (stereo not shown) [Example 1127, 1-(1-(4-(3-(6-(4-isopropyl-4H-1,2,4-triazol-3-yl)pyridin-2-yl)-2-oxoimidazolidin-1-yl)phenyl)ethyl)-N-methylpiperidine-4-carboxamide] | < 100 nM
CC(C)n1cnnc1-c1cccc(N2CCN(c3ccnc(N4CCOCC4)c3)C2=O)n1 [Example 1132, 1-(6-(4-isopropyl-4H-1,2,4-triazol-3-yl)pyridin-2-yl)-3-(2-morpholinopyridin-4-yl)imidazolidin-2-one] | > 1000 nM
